According to patent US9566290B2, “Boron-containing small molecules” (Anacor Pharmaceuticals, Inc., priority 2005, dated 2017):
≈ marks a conversion by molar mass, not a printed value. Where “and” joins values, the source holds several entries; their conditions need not be identical. Equal values may be shown once.

Tests used:
[1] = tested on: Trichophyton rubrum (T. rubrum); test: TurChub zone of inhibition assay through full thickness human nail; type: cell-based; settings: 40 μL/cm^2 per day over five days
Protocol: The aim of the current study was to assess and compare the perungual absorption of C10 in a simple vehicle using MedPharm's TurChub® model (see http://www.medpharm.co.uk; specificaly http://www.medpharm.co.uk/downloads/Skin%20and%20nail%2dec%202003.pdf viewed Feb. 14, 2006). in a full scale experiment. Six replicates involving C10 were conducted and Formulations Y (8% ciclopirox w/w in commercial lacquer) and Z (Loceryl, 5% amorolfine w/v in commercial lacquer) were used as the reference formulations.
A dose of 40 μL/cm^2 of the test compound C10 in 50:50 propylene glycol:ethyl acetate was applied to a full thickness nail sample each day over a total duration of five days. Both the reference formulations were also applied at the same dose.
Placebo, test item C10 in vehicle and the reference formulations Y and Z were tested for their inhibition of Trichophyton rubrum (T. rubrum) growth after penetration through a full thickness human nail using a zone of inhibition measurement.

T. rubrum = test: Minimum fungicidal concentration (MFC); type: cell-based; settings: Trichophyton rubrum, lowest concentration that killed over 90%
From the text: (§1) (C10) is a novel compound in development for use as a topical antifungal treatment. The purpose of this study was to determine the minimum inhibitory concentration (MIC) for (C10) against 19 test strains of fungi including: Aspergillus fumigatus (A. fumigatus), Candida Albicans (C. albicans, both fluconazole sensitive and resistant strains), Candida glabrata (C. glabrata), Candida krusei (C. krusei), Cryptococcus neoformans (C. neoformans), Candida parapsilosis (C. parapsilosis), Candida tropicalis (C. tropicalis), Epidermophyton floccosum (E. floccosum), Fusarium solani (F. solani), Malassezia furfur (M. furfur), Malassezia pachydermatis (M. pachydermatis), Malassezia sympodialis (M. sympodialis), Microsporum audouinii (M. audouinii), Microsporum canis (M. canis), Microsporum gypseum (M. gypseum), Trichophyton mentagrophytes (T. mentagrophytes), Trichophyton rubrum (T. rubrum), Trichophyton tonsurans (T. tonsurans). Fungal growth was evaluated after exposure to different concentrations of (C10). In addition, the MIC for (C10) against T. rubrum in the presence of 5% keratin powder and the minimum fungicidal concentration (MFC) for (C10) against T. rubrum and T. mentagrophytes were also determined. Ciclopirox and/or terbinafine and/or fluconazole and/or itraconazole were used as comparators and tested in a similar manner. These studies were conducted at NAEJA Pharmaceutical, Inc. […]

T. mentagrophytes = test: Minimum fungicidal concentration (MFC); type: cell-based; settings: Trichophyton mentagrophytes, lowest concentration that killed over 90%
From the text: as §1

[2] = Nail penetration, 14-day dosing of radiolabeled compound (Hui protocol); type: in vitro ADME
Protocol: Two nail penetration studies were performed based on the protocol in Hui et al., Journal of Pharmaceutical Sciences, 91(1): 189-195 (2002) (“Hui protocol”). The purpose of this study was to determine and compare the penetration and distribution of C10 in vehicle into the human nail plate in vitro relative to 8% ciclopirox w/w in commercial lacquer (Penlac®).
The study was composed of two groups. The compositions (weight %) of the dosage formulations are as follows: […]
Healthy human finger nail plates were collected from adult human cadavers and stored in a closed container at 0-4° C. Before the experiment, the nail plates were gently washed with normal saline to remove any contamination, then re-hydrated by placing them for three hours on a cloth wetted with normal saline. The nail samples were randomly selected into four groups.
Radioactivity of each group is approximately 0.19±0.01 and 0.22±0.03 μCi/10 μL solutions respectively, for ^14C—C10 (group A), and ^14C-ciclopirox (group C).
Surface washing was started in morning 10 min prior to next dosing, the surface of the nail was washed with cotton tips in a cycle, as follows:
A Teflon one-chamber diffusion cell (PermeGear, Inc., Hellertown, Pa.) was used to hold each nail. To approximate physiological conditions, a small cotton ball wetted with 0.1 mL normal saline was placed in the chamber to serve as a nail bed and provide moisture for the nail plate. Every 3 days, 0.1 mL normal saline was injected through the inlet into the chamber to keep the cotton ball wet. The nail plate was placed on a ledge inside the receptor (1.0 cm in diameter and 0.5 cm high). The ventral (inner) surface of the nail was placed face down and rested on the wet cotton ball. The cells were placed on a platform in a large glass holding tank filled with saturated sodium phosphate solution to keep the cells at a constant humidity of 40%.
After completion of the incubation phase, the nail plate was transferred from the diffusion cell to a clean copper nail holder for sampling process. The nail plate was inverted so that the ventral (nail bed) surface now faced up and the dorsal (outer) dosed surfaced faced down. The copper nail holder has an opening as it sits on top of the stage. When the sampling process initiated, the coarse adjustment was adjusted to move the position of the stage until the nail plate was just touching the tip of the cutter. Then the drill was turned on and the fine adjustment was turned to push the stage closer to the drill, removing a nail core sample. After the above process, approximate 0.40-0.50 mm in depth and 7.9 mm in diameter nail pulverized samples were harvested from the center of the ventral (nail bed) surface of the nail.
The powdered nail samples were collected into a glass scintillation vial and weighted. Aliquots of 5.0 mL Packard soluene-350 (Packard Instrument Company, Meriden, Conn.) was added to the scintillation vial to dissolve the powder. The upper part, the intermediate and dorsal layers of the center of the nail, including the area of application of the dose was cut in the same diameter as the sampled area and was then placed into a glass scintillation vial with 5.0 mL packard soluene-350. The rest of the nail was also placed in a glass scintillation vial with 5.0 mL packard soluene-350.
All radioactivity measurements were conducted with a Model 1500 Liquid Scintillation Counter (Packard Instrument Company, Downer Grove, Ill.). The counter was audited for accuracy using sealed samples of quenched and unquenched standards as detailed by the instrument manual. The ^14C counting efficiency is equal to or greater than 95%. All nail samples pre-treated with packard soluene-350 were incubated at 40° C. for 48 hours followed by the addition of 10 mL scintillation cocktail (HIONIC-FLUOR, Packard Instrument Company, Meriden, Conn.). […]

OB1OCc2cc(F)ccc21 [C10, 5-fluorobenzo[c][1,2]oxaborol-1(3H)-ol]
zone of inhibition, result in words ([1]; full thickness nail): superior results vs. the commercial reference formulations Y and Z | Zones of inhibition ([1]; C10 10% w/v solution, second experiment (FIG. 7), six cells): 74% and 86% and 100% and 82% and 84% | MFC (T. rubrum): 8 µg/mL (≈ 52.7 µM) | MFC (T. mentagrophytes): 16 µg/mL (≈ 105 µM) | absolute amount of drug equivalent per cotton ball sample versus ciclopirox [2]: significantly higher | amount of equivalent in ventral/intermediate center of the nail layer and cotton ball supporting bed versus group C (ciclopirox) [2]: statistically higher | weight normalized concentration of drug equivalent in nail samples versus ciclopirox equivalent ([2]; dorsal/intermediate center, ventral/intermediate center and remainder nail, 14-day treatment, p≦0.002): significantly higher | Cumulative radioactivity recoveries of carbon-14 ([2]; human, 14 day): 88±9.21% of applied dose | difference of the two test chemicals in cotton ball supporting bed (C10 versus ciclopirox) ([2]; human, 14 day): 250 times
